The subject of this experiment is Pseudomonas aeruginosa PAM1001. Briefly: checkerboard assay (broth microdilution): levofloxacin MIC in presence of efflux pump inhibitor. The experiment is classed as cell-based. The procedure:
For compounds labeled with the prefix ‘M’, potentiation effect is observed by the reduction of the minimum inhibitory concentration of levofloxacin in the presence of the experimental efflux pump inhibitor. The activity of efflux pump inhibitors (EPI) in combination with fluoroquinolones, such as levofloxacin, is assessed by the checkerboard assay (Antimicrobial Combinations. In Antibiotics in Laboratory Medicine, Ed. Victor Lorian, M.D., Fourth edition, 1996, pp 333-338) using broth microdilution method performed as recommended by the National Committee for Clinical Laboratory Standards (1997). Methods for Dilution of Antimicrobial Susceptibility Tests for Bacteria That Grow Aerobically—Fourth Edition; Approved Standard. NCCLS Document M7-A4, Vol 17 No.2). The test organism used is Pseudomonas aeruginosa PAM1001. […] The compounds tabulated below are representative of the described invention.
In these assays, multiple dilutions of two drugs, namely the EPI and levofloxacin, are being tested, alone and in combination, at concentrations equal to, above and below their respective minimal inhibitory concentrations (MICs). In the case of EPI, most of these compounds are devoid of intrinsic antimicrobial activity and are tested up to the maximum concentration of 40 μg/mL. The MIC of levofloxacin against P. aeruginosa PAM1001 is 4 μg/mL.
The EPI tested are readily soluble in water and stock solutions are prepared at a final concentration of 2 mg/mL. Stock solutions are further diluted, according to the needs of a particular assay, in Mueller Hinton Broth (MHB). Stock solution can be stored at −80° C. Quinolones are solubilized according to the instructions of the manufacturers, at a concentration of 1 mg/mL. They are then further diluted in MHB. Stock solution can be stored at −80° C.
The checkerboard assay is performed in microtiter plates. Levofloxacin is diluted in the x axis, each column containing a single concentration of levofloxacin. The EPI is diluted in the y axis, each row containing an equal concentration of EPI. The result of these manipulations is that each well of the microtiter plate contains a unique combination of concentrations of the two agents. Each EPI are tested independently.
The assay is performed in MHB with a final bacterial inoculum of 5×10^5 CFU/mL (from an early-log phase culture). Microtiter plates are incubated during 20 h at 35° C. and are read using a microtiter plate reader (Molecular Devices) at 650 nm as well as visual observation using a microtiterplate reading mirror.

For the compound `NC[C@@H]1CN[C@@H](C(=O)N[C@H](CCc2ccccc2)C(=O)Nc2ccc3ncccc3c2)C1` [Compound M29, (2R,4R)-4-(Aminomethyl)-N-[(1R)-3-pheyl-1-(6-quinolylcarbamoyl)propyl]-2-pyrrolidinecarboxamide], the “Levofloxacin MIC Against P. aerugiuosa PAM1001 in Presence of Efflux Pump Inhibitor (EPI), Minimum Inhibitory Concentration” value came to 4 µg/mL (EPI Conc. 0 μg/mL); 4 µg/mL (EPI Conc. 0.625 μg/mL); 4 µg/mL (EPI Conc. 1.25 μg/mL); 2 µg/mL (EPI Conc. 2.5 μg/mL); 1 µg/mL (EPI Conc. 5 μg/ mL); 0.25 µg/mL (EPI Conc. 10 μg/mL). The “Levofloxacin MIC Against P. aerugiuosa PAM1001 in Presence of Efflux Pump Inhibitor (EPI), Minimum Inhibitory Concentration” value is, setting by setting: (EPI Conc. 20 μg/mL) 0.06 µg/mL; (EPI Conc. 40 μg/mL) 0.03 µg/mL.

For `NC[C@@H]1CN[C@@H](C(=O)N[C@H](CCc2ccccc2)C(=O)Nc2cccc3cccnc23)C1` [Compound M30, (2R,4R)-4-(Aminomethyl)-N-[(1R)-3-pheyl-1-(8-quinolylcarbamoyl)propyl]-2-pyrrolidinecarboxamide], the “Levofloxacin MIC Against P. aerugiuosa PAM1001 in Presence of Efflux Pump Inhibitor (EPI), Minimum Inhibitory Concentration” value (EPI Conc. 0 μg/mL) is 4 µg/mL; the “Levofloxacin MIC Against P. aerugiuosa PAM1001 in Presence of Efflux Pump Inhibitor (EPI), Minimum Inhibitory Concentration” value (EPI Conc. 0.625 μg/mL) is 4 µg/mL; the “Levofloxacin MIC Against P. aerugiuosa PAM1001 in Presence of Efflux Pump Inhibitor (EPI), Minimum Inhibitory Concentration” value (EPI Conc. 1.25 μg/mL) was determined as 4 µg/mL; the “Levofloxacin MIC Against P. aerugiuosa PAM1001 in Presence of Efflux Pump Inhibitor (EPI), Minimum Inhibitory Concentration” value (EPI Conc. 2.5 μg/mL) was 4 µg/mL; the “Levofloxacin MIC Against P. aerugiuosa PAM1001 in Presence of Efflux Pump Inhibitor (EPI), Minimum Inhibitory Concentration” value (EPI Conc. 5 μg/ mL) was found to be 4 µg/mL; the “Levofloxacin MIC Against P. aerugiuosa PAM1001 in Presence of Efflux Pump Inhibitor (EPI), Minimum Inhibitory Concentration” value (EPI Conc. 10 μg/mL) is 2 µg/mL. The “Levofloxacin MIC Against P. aerugiuosa PAM1001 in Presence of Efflux Pump Inhibitor (EPI), Minimum Inhibitory Concentration” value worked out at 0.03 µg/mL (EPI Conc. 20 μg/mL) and 0.015 µg/mL (EPI Conc. 40 μg/mL).

For the compound `NC[C@@H]1CN[C@@H](C(=O)N[C@H](Cc2ccc(F)cc2)C(=O)Nc2cnc3ccccc3c2)C1` [Compound M31, (2R,4R)-4-(Aminomethyl)-N-[(1R)-2-(4-fluoropheyl)-1-(3-quinolylcarbamoyl)ethyl]-2-pyrrolidinecarboxamide], the “Levofloxacin MIC Against P. aerugiuosa PAM1001 in Presence of Efflux Pump Inhibitor (EPI), Minimum Inhibitory Concentration” value stood at 4 µg/mL (EPI Conc. 0 μg/mL); 4 µg/mL (EPI Conc. 0.625 μg/mL); 4 µg/mL (EPI Conc. 1.25 μg/mL); 4 µg/mL (EPI Conc. 2.5 μg/mL); 1 µg/mL (EPI Conc. 5 μg/ mL); 0.25 µg/mL (EPI Conc. 10 μg/mL). Moreover, the “Levofloxacin MIC Against P. aerugiuosa PAM1001 in Presence of Efflux Pump Inhibitor (EPI), Minimum Inhibitory Concentration” value is 0.03 µg/mL (EPI Conc. 20 μg/mL) and 0.03 µg/mL (EPI Conc. 40 μg/mL).

On to `NC[C@@H]1CN[C@@H](C(=O)N[C@H](CCc2ccccc2)C(=O)NCc2cnc3ccccc3c2)C1` [Compound M32], for which the “Levofloxacin MIC Against P. aerugiuosa PAM1001 in Presence of Efflux Pump Inhibitor (EPI), Minimum Inhibitory Concentration” value runs as follows: (EPI Conc. 0 μg/mL) 4 µg/mL; (EPI Conc. 0.625 μg/mL) 4 µg/mL; (EPI Conc. 1.25 μg/mL) 4 µg/mL; (EPI Conc. 2.5 μg/mL) 4 µg/mL; (EPI Conc. 5 μg/ mL) 2 µg/mL; (EPI Conc. 10 μg/mL) 1 µg/mL. In addition, the “Levofloxacin MIC Against P. aerugiuosa PAM1001 in Presence of Efflux Pump Inhibitor (EPI), Minimum Inhibitory Concentration” value by setting is: (EPI Conc. 20 μg/mL) 0.25 µg/mL; (EPI Conc. 40 μg/mL) 0.25 µg/mL.

(Values after patent publication US6399629B1, “Efflux pump inhibitors” (priority 1998, dated 2002).)
